{
  "source": "patent US20240240208A1",
  "about": "“COMPOSITIONS AND METHODS FOR INCREASING EFFICIENCY OF PRECISE EDITING REPAIR” (New York Genome Center, Inc., priority 2021, published 2024)",
  "data": [
    {"tested_on": "human K562 PRKDC−/− cells", "assay": "Precise repair (% BFP conversion) after SpCas9 RNP, EGFP-targeting sgRNA and EBFP ssODN nucleofection", "assay_type": "cell-based", "details": "1 μM, DMSO control 56%", "description": "To investigate the effect of combinatorial inhibition using a DNA-PK inhibitor and another inhibitor on HDR gene editing rates, human K562 PRKDC−/− cells (a DNA Knock Out cell line) were nucleofected with SpCas9 RNPs with an EGFP-targeting sgRNA and EBFP ssODN and then incubated with 1 μM (micro molar) concentration ST1926 (an inhibitor of POLA1) or DMSO treated (control). Gene editing rates are expressed in percentages and classified as % precise repair (% BFP conversion). The combination of ST1926 treatment in PRKDC-null human cells boosted precise editing from 56% to 73%.", "units": {"% precise repair (% BFP conversion)": "%"}, "values": [
      {"molecule": "O=C(O)/C=C/c1ccc(-c2ccc(O)c(C34CC5CC(CC(C5)C3)C4)c2)cc1", "note": "[ST1926]", "% precise repair (% BFP conversion)": 73}
    ]},
    {"tested_on": "RFC5, TUBA1B, NEDD8, LIG4, POLQ and RAD51 knock-out lines", "assay": "HDR levels by cell sorting in gene knock out cell lines treated with DNA-PK inhibitor", "assay_type": "cell-based, human", "details": "2 μM DNA-PK inhibitor in RFC5, TUBA1B", "description": "Knock out cell lines of the indicated genes were treated with 2 μM of DNA-PK inhibitor. HDR levels were determined by cell sorting.\nThe inventors identified regulators of homologous directed repair (HDR) that synergize with inhibition of non-homologous end-joining (NHEJ) and further increase HDR levels in human cells. The inventors targeted all of the 20,000 genes in the human genome using a pair of CRISPR-based screens to identify genes that, upon loss (knock-out) or gain (overexpression), increase precise gene repair. Using a CRISPR inhibition screen, a ranked list of the effect of loss of every human gene on precise gene repair. In a CRISPR activation screen, we produced a ranked list of the effect of gain of every human gene on precise gene repair. Combinatorial effects of multiple gene/drug perturbations on boosting precise gene repair were also examined. […]\nTo study the efficiency of HDR in human cells we used the green fluorescent protein (GFP) to blue fluorescent protein (BFP) pair, where conversion from GFP to BFP requires editing of 2 nucleotides. […] Efficiency of HDR in cells carrying specific genetic perturbations (genetic inhibition or activation) were identified using fluorescence-activated cell sorting (FACS), followed by guide RNA recovery and quantification using next-generation sequencing (NGS).\nHDR levels were determined by cell sorting.", "values": [
      {"molecule": "O=c1cc(N2CCOCC2)oc2c(-c3cccc4c3sc3ccccc34)cccc12", "note": "[NU7441]", "HDR levels": "significant increase in the HDR levels"}
    ]},
    {"tested_on": "HEK293 DNA-PK KO cells", "assay": "HDR levels by GFP-to-BFP conversion assay in DNA-PK KO cells clone 22 treated with small molecule inhibitors", "assay_type": "cell-based, human", "details": "1 μM inhibitor added with Cas9, guide RNA and ssDNA encoding BFP; DNA-PK KO cells clone 22; drugs washed off 24 hours later", "description": "(§1) Eighteen targets were targeted with 38 drugs. […] Small molecule inhibitors were added in the media simultaneously with the introduction of Cas9, guide RNA and single-stranded DNA (ssDNA) encoding BFP. HDR levels were measured with the BFP-to-GFP assay. […] Precise repair levels are shown as a % of BFP+ cells over DMSO.\n(§2) DNA-PK KO cells were tested with the noted compounds at compounds at 10 μM, 5 μM, 1 μM, 0.5 μM, 0.1 μM, and 0.01 μM, as for FIGS. 4 and 6. HDR levels are shown as a % of BFP+ cells over DMSO 24 hours after drug treatment.\n(§3) To study the efficiency of HDR in human cells we used the green fluorescent protein (GFP) to blue fluorescent protein (BFP) pair, where conversion from GFP to BFP requires editing of 2 nucleotides. The CRISPR screens were performed on a K562 human cell line stably expressing a green fluorescent protein (GFP). GFP was targeted with Cas9, guide RNA targeting GFP, and a single stranded DNA (ssDNA) encoding BFP. Efficiency of HDR in cells carrying specific genetic perturbations (genetic inhibition or activation) were identified using fluorescence-activated cell sorting (FACS), followed by guide RNA recovery and quantification using next-generation sequencing (NGS).\n(§4) The small molecules were tested on DNA-PK knockout HET293 cells at concentrations of 10 μM or 1 μM. Eighteen targets were targeted with 38 drugs. […] Drug validations were performed in DNA-PK KO cells clone 22 treated with dimethyl sulfoxide (DMSO) or 1 or 10 μM of the indicated inhibitors. HDR levels were measured with the BFP-to-GFP assay. Small molecule inhibitors were added in the media simultaneously with the introduction of Cas9, guide RNA and single-stranded DNA (ssDNA) encoding BFP. The drugs were washed off 24 hours later.\n(§5) The compounds shown in FIG. 6 were further tested for dose dependent effects. The same cells as described above were treated with the noted compounds at compounds at 10 μM, 5 μM, 1 μM, 0.5 μM, 0.1 μM, and 0.01 μM. HDR levels are shown as a % of BFP+ cells over DMSO 24 hours after drug treatment (FIG. 7).", "values": [
      {"molecule": "COc1cc(Nc2ncc3c(n2)-c2ccc(Cl)cc2C(c2c(F)cccc2OC)=NC3)ccc1C(=O)O", "note": "[Alisertib]", "HDR levels (% of BFP+ cells over DMSO)": "increased HDR levels"},
      {"molecule": "COc1cc(-c2cn(C)c(=O)c3cnccc23)cc(OC)c1CN(C)C", "note": "[BI-7273]", "HDR levels (% of BFP+ cells over DMSO)": "increased HDR levels"},
      {"molecule": "Cc1cc2c(C(N)=O)cccc2n1-c1nc2c(c(NCc3ccccc3)n1)COCC2", "note": "[CB-5083]", "HDR levels (% of BFP+ cells over DMSO)": "increased HDR levels"},
      {"molecule": "O=C(O)c1ccc2cc(-c3ccc(O)c(C45CC6CC(CC(C6)C4)C5)c3)ccc2c1", "note": "[CD437]", "HDR levels (% of BFP+ cells over DMSO)": "increased HDR levels"},
      {"molecule": "c1ccc(CNc2nc(NCc3ccccc3)c3ccccc3n2)cc1", "note": "[DBeQ]", "HDR levels (% of BFP+ cells over DMSO)": "increased HDR levels"},
      {"molecule": "NC(=O)/C(=C/n1cnc(-c2cc(C(F)(F)F)cc(C(F)(F)F)c2)n1)c1cncnc1", "note": "[Eltanexor (KPT-8602), Eltanexor]", "HDR levels (% of BFP+ cells over DMSO)": "increased HDR levels"},
      {"molecule": "COC(=O)[C@H](CCSC)NC(=O)c1ccc(NC[C@@H](N)CS)cc1-c1ccccc1.Cl", "note": "[FTI 277 HCl]", "HDR levels (% of BFP+ cells over DMSO)": "increased HDR levels"},
      {"molecule": "CC(=O)Nc1nc(-c2cccc(NS(=O)(=O)c3cccc4c(N(C)C)cccc34)c2)cs1", "note": "[HA15]", "HDR levels (% of BFP+ cells over DMSO)": "increased HDR levels"},
      {"molecule": "CCn1cc(-c2cccc(C(F)(F)F)c2)c2sc(C(=N)NC3CCS(=O)(=O)CC3)cc2c1=O", "note": "[I-BRD9]", "HDR levels (% of BFP+ cells over DMSO)": "increased HDR levels"},
      {"molecule": "O=C(/C=C\\n1cnc(-c2cc(C(F)(F)F)cc(C(F)(F)F)c2)n1)N1CC(F)(F)C1", "note": "[KPT-276]", "HDR levels (% of BFP+ cells over DMSO)": "increased HDR levels"},
      {"molecule": "Cc1ncc(CCCN(C)C)cc1Nc1ncc2c(n1)-c1ccc(C(F)(F)F)cc1NC(=S)C2", "note": "[MLN0905]", "HDR levels (% of BFP+ cells over DMSO)": "increased HDR levels"},
      {"molecule": "Cc1cc(OCc2nnc(SC3CCCC3)n2-c2cccnc2)ccc1-c1ccc(S(C)(=O)=O)cc1", "note": "[NMS-873]", "HDR levels (% of BFP+ cells over DMSO)": "increased HDR levels"},
      {"molecule": "CO[C@@H]1[C@@H](OC(N)=O)[C@@H](O)[C@H](Oc2ccc3c(O)c(NC(=O)c4ccc(O)c(CC=C(C)C)c4)c(=O)oc3c2C)OC1(C)C", "note": "[Novobiocin]", "HDR levels (% of BFP+ cells over DMSO)": "increased HDR levels"},
      {"molecule": "Nc1ncnc2c1c(COc1cccc(Cl)c1)nn2C1CCOCC1", "note": "[PF 4800567]", "HDR levels (% of BFP+ cells over DMSO)": "increased HDR levels"},
      {"molecule": "Nc1nccc(-c2c(-c3ccc(F)cc3)ncn2C2CCCCC2)n1", "note": "[PF-670462]", "HDR levels (% of BFP+ cells over DMSO)": "increased HDR levels"},
      {"molecule": "Cc1nc(Nc2n[nH]c3c2CN(C(=O)N[C@H](CN(C)C)c2ccccc2)C3(C)C)c2sccc2n1", "note": "[PF-3758309]", "HDR levels (% of BFP+ cells over DMSO)": "increased HDR levels"},
      {"molecule": "O=C(O)/C=C/c1ccc(-c2ccc(O)c(C34CC5CC(CC(C5)C3)C4)c2)cc1", "note": "[ST1926]", "HDR levels (% of BFP+ cells over DMSO)": "increased HDR levels"},
      {"molecule": "O=C(O)Cn1c2c(c3cc(F)ccc31)CN(C(=O)c1cccc3ccccc13)CC2", "note": "[Setipiprant]", "HDR levels (% of BFP+ cells over DMSO)": "increased HDR levels"},
      {"molecule": "N#Cc1ccc(COC[C@H]2O[C@@H](n3c(NCc4ccc(Cl)c(Cl)c4)nc4c(N)ncnc43)[C@H](O)[C@@H]2O)cc1", "note": "[VER155008]", "HDR levels (% of BFP+ cells over DMSO)": "increased HDR levels"},
      {"molecule": "C=CC(=O)Nc1ccc(C(=O)Nc2n[nH]c3c2CN(C(=O)N[C@H](CN(C)C)c2ccccc2)C3(C)C)cc1", "note": "[YKL-5-124]", "HDR levels (% of BFP+ cells over DMSO)": "increased HDR levels"}
    ]},
    {"tested_on": "HEK293 DNA-PK KO cells", "assay": "HDR levels by GFP-to-BFP conversion assay in DNA-PK KO cells clone 22 treated with small molecule inhibitors", "assay_type": "cell-based, human", "details": "10, 5, 1, 0.5, 0.1 and 0.01 μM; DNA-PK KO cells; 24 hours after drug treatment", "description": "as §1, §2, §3, §4, §5", "values": [
      {"molecule": "O=C(/C=C\\n1cnc(-c2cc(C(F)(F)F)cc(C(F)(F)F)c2)n1)N1CC(F)(F)C1", "note": "[KPT-276]", "BFP+ increase over DMSO (dose dependent effect on HDR)": "promote HDR at low concentration"},
      {"molecule": "COc1ccc(CCNCc2ccc(OCc3ccc(Cl)nc3)c(OC)c2)cc1OC.Cl", "note": "[SBE 13 HCl]", "BFP+ increase over DMSO (dose dependent effect on HDR)": "dose-dependent increase in HDR"}
    ]},
    {"tested_on": "HEK293 DNA-PK KO cells", "assay": "MTT cytotoxicity assay after 24 hours drug treatment", "assay_type": "cell-based, human", "details": "10, 5, 1, 0.5, 0.1 and 0.01 μM", "description": "FIG. 8 is a heat plot showing cytotoxicity after drug treatment. HEK293 DNA-PK KO cells were treated with the noted compounds at 10 μM, 5 μM, 1 μM, 0.5 μM, 0.1 μM, and 0.01 μM in triplicate. After 24 hours an MTT assay was performed.\nThe same compounds were also tested for cytotoxicity at 10 μM, 5 μM, 1 μM, 0.5 μM, 0.1 μM, and 0.01 μM.", "values": [
      {"molecule": "O=C(/C=C\\n1cnc(-c2cc(C(F)(F)F)cc(C(F)(F)F)c2)n1)N1CC(F)(F)C1", "note": "[KPT-276]", "cytotoxicity over DMSO (MTT, viable cells)": "toxic at high concentration"},
      {"molecule": "COc1ccc(CCNCc2ccc(OCc3ccc(Cl)nc3)c(OC)c2)cc1OC.Cl", "note": "[SBE 13 HCl]", "cytotoxicity over DMSO (MTT, viable cells)": "low toxicity"}
    ]}
  ]
}
